Tested on: mouse counterpart genes
Assay: Mouse GeneChip (MG-U74A to MG-U74C) analysis of lung and trachea of the OVA antigen-exposed bronchial hypersensitivity model, S-Sal group versus S-OVA group
Assay type: in vivo
Conditions: S-Sal group vs S-OVA group

ovalbumin [OVA antigen, ovalbumin antigen used for sensitization and inhalation to induce bronchial hypersensitivity in mice]
Fold Change, interferon gamma inducible protein 30 (mouse probe 97444_at) (3rd, chip A, P/A call A): 1.8
Fold Change, matrix metalloproteinase 7 (mouse probe 92917_at) (3rd, chip A, P/A call A): 1.6
Fold Change, matrix metalloproteinase 7 (mouse probe 162318_r_at) (3rd, chip A, P/A call A): 1.3
Fold Change, met proto-oncogene (mouse probe 100309_at) (3rd, chip A, P/A call A): 1.9
Fold Change, phosphotidylinositol transfer protein, beta (mouse probe 102697_at) (3rd, chip A, P/A call A): 0.5
Fold Change, A kinase anchor protein 2 (mouse probe 101435_at) (3rd, chip A, P/A call P): 1
Fold Change, DNA segment. Chr 16. ERATO Doi 269, expressed (mouse probe 97821_at) (3rd, chip A, P/A call P): 1
Fold Change, DNA segment. Chr 16. ERATO Doi 269, expressed (mouse probe 97823_g_at) (3rd, chip A, P/A call P): 1.1
Fold Change, a disintegrin and metalloprotease domain 8 (mouse probe 103024_at) (3rd, chip A, P/A call P): 4.6
Fold Change, arachidonate 15-lipoxygenase (mouse probe 98758_at) (3rd, chip A, P/A call P): 8
Fold Change, cholesterol 25-hydroxylase (mouse probe 104509_at) (3rd, chip A, P/A call P): 1.9
Fold Change, claudin 4 (mouse probe 101410_at) (3rd, chip A, P/A call P): 1
Fold Change, decay accelerating factor 1 (mouse probe 103617_at) (3rd, chip A, P/A call P): 1.3
Fold Change, interferon-stimulated protein (20 kDa) (mouse probe 103432_at) (3rd, chip A, P/A call P): 1
Fold Change, interleukin 1 receptor-like 1 (mouse probe 98500_at) (3rd, chip A, P/A call P): 2.4
Fold Change, low density lipoprotein receptor-related protein associated protein 1 (mouse probe 100086_at) (3rd, chip A, P/A call P): 0.833
Fold Change, low density lipoprotein receptor-related protein associated protein 1 (mouse probe 161988_f_at) (3rd, chip A, P/A call P): 1.1
Fold Change, membrane-associated protein 17 (mouse probe 96935_at) (3rd, chip A, P/A call P): 1.1
Fold Change, polycystic kidney disease 2 (mouse probe 100951_at) (3rd, chip A, P/A call P): 0.667
Fold Change, histocompatibility 2, Q region locus 7 (mouse probe 98438_f_at) (3rd, chip A, P/A call P, counterpart of human probe 37420_i_at): 1.2
Fold Change, histocompatibility 2, Q region locus 7 (mouse probe 98438_f_at) (3rd, chip A, P/A call P, counterpart of human probe 37421_f_at): 1.2
Fold Change, A kinase (PRKA) anchor protein 10 (mouse probe 163162_at) (3rd, chip B, P/A call A): 0.526
Fold Change, ESTs Putative Ortholog of ISG-54K gene (mouse probe 164273_at) (3rd, chip B, P/A call A): 1.5
Fold Change, ESTs, Highly similar to AF116721 8 PRO0907 [H. sapiens] (mouse probe 114151_at) (3rd, chip B, P/A call A): 1.4
Fold Change, decay accelerating factor 1 (mouse probe 164905_r_at) (3rd, chip B, P/A call A): 1.1
Fold Change, interferon gamma inducible protein 30 (mouse probe 164423_at) (3rd, chip B, P/A call A): 4.1
Fold Change, secreted end transmembrane 1 (mouse probe 115133_at) (3rd, chip B, P/A call A): 0.625
Fold Change, viral hemorrhagic septicemia virus(VHSV) induced gene 1 (mouse probe 109385_at) (3rd, chip B, P/A call A): 0.286
Fold Change, decay accelerating factor 1 (mouse probe 107626_at) (3rd, chip B, P/A call P): 1.9
Fold Change, deleted in bladder cancer chromosome region candidate 1 (human) Putative Ortholog (mouse probe 166806_at) (3rd, chip C, P/A call P): 1
Fold Change, interferon-induced protein with tetratricopeptide repeats 1 (mouse probe 168299_f_at) (3rd, chip C, P/A call P): 1.2
Fold Change, 2′-5′ oligoadenylate synthetase 1A (mouse Probe ID 102717_at) (chip A, 1st): 1.6
Fold Change, DnaJ (Hsp40) homolog, subfamily A, member 1 (mouse Probe ID 97261_at) (chip A, 1st): 0.476
Fold Change, SAM domain and HD domain, 1 (mouse Probe ID 103080_at) (chip A, 1st): 1.3
Fold Change, cadherin 6 (mouse Probe ID 101730_at) (chip A, 1st): 0.833
Fold Change, cyclin D3 (mouse Probe ID 160545_at) (chip A, 1st): 0.625
Fold Change, growth arrest and DNA-damage-inducible 45 gamma (mouse Probe ID 101979_at) (chip A, 1st): 2.3
Fold Change, heparan sulfate (glucosamine) 3-)-sulfotransferase 1 (mouse Probe ID 102410_at) (chip A, 1st): 1.4
Fold Change, hydroxysteroid (17-beta) dehydrogenase 2 (mouse Probe ID 101891_at) (chip A, 1st): 1.8
Fold Change, intercellular adhesion molecule (mouse Probe ID 96752_at) (chip A, 1st): 1.3
Fold Change, intercellular adhesion molecule (mouse Probe ID 1011414_at) (chip A, 1st): 1
Fold Change, interferon-induced protein with tetratricopeptide repeats 1 (mouse Probe ID 100981_at) (chip A, 1st): 1.8
Fold Change, interferon-stimulated protein (15 kDa) (mouse Probe ID 98822_at) (chip A, 1st): 4.3
Fold Change, interleukin 13 receptor, alpha 2 (mouse Probe ID 95344_at) (chip A, 1st): 1.4
Fold Change, nitric oxide synthase 2, inducible, macrophage (mouse Probe ID 104420_at) (chip A, 1st): 2.3
Fold Change, osteoblast specific factor 2 (fasciclin I-like) (mouse Probe ID 92593_at) (chip A, 1st): 1.2
Fold Change, proteosome (prosome, macropain) subunit, beta type 9 (mouse Probe ID 93085_at) (chip A, 1st): 2.1
Fold Change, sialyltransferase 1 (beta-galactoside alpha-2,6-sialyltransferase) (mouse Probe ID 94431_at) (chip A, 1st): 0.385
Fold Change, small inducible cytokine B subfamily (Cys-X-Cys), member 10 (mouse Probe ID 93858_at) (chip A, 1st): 1.3
Fold Change, thioredoxin reductase 1 (mouse Probe ID 99985_at) (chip A, 1st): 1.2
Fold Change, thioredoxin reductase 1 (mouse Probe ID 161043_r_at) (chip A, 1st): 1.4
Fold Change, thrombospondin 1 (mouse Probe ID 160469_at) (chip A, 1st): 1.1
Fold Change, transglutaminase 2, C polypeptide (mouse Probe ID 93352_at) (chip A, 1st): 1
Fold Change, 2′-5′ oligoadenylate synthetase 1A (mouse Probe ID 102717_at) (chip A, 2nd): 1.7
Fold Change, SAM domain and HD domain, 1 (mouse Probe ID 103080_at) (chip A, 2nd): 1.3
Fold Change, cadherin 6 (mouse Probe ID 101730_at) (chip A, 2nd): 1.1
Fold Change, cyclin D3 (mouse Probe ID 160545_at) (chip A, 2nd): 1.1
Fold Change, fructose bisphosphatase 1 (mouse Probe ID 96918_at) (chip A, 2nd): 2.3
Fold Change, growth arrest and DNA-damage-inducible 45 gamma (mouse Probe ID 101979_at) (chip A, 2nd): 5.4
Fold Change, heparan sulfate (glucosamine) 3-)-sulfotransferase 1 (mouse Probe ID 102410_at) (chip A, 2nd): 0.4
Fold Change, hydroxysteroid (17-beta) dehydrogenase 2 (mouse Probe ID 101891_at) (chip A, 2nd): 0.667
Fold Change, intercellular adhesion molecule (mouse Probe ID 96752_at) (chip A, 2nd): 1.2
Fold Change, intercellular adhesion molecule (mouse Probe ID 1011414_at) (chip A, 2nd): 0.357
Fold Change, interferon-induced protein with tetratricopeptide repeats 1 (mouse Probe ID 100981_at) (chip A, 2nd): 1.9
Fold Change, interferon-stimulated protein (15 kDa) (mouse Probe ID 98822_at) (chip A, 2nd): 4.2
Fold Change, interleukin 13 receptor, alpha 2 (mouse Probe ID 95344_at) (chip A, 2nd): 1.5
Fold Change, nitric oxide synthase 2, inducible, macrophage (mouse Probe ID 104420_at) (chip A, 2nd): 1.1
Fold Change, proteosome (prosome, macropain) subunit, beta type 9 (mouse Probe ID 93085_at) (chip A, 2nd): 1.6
Fold Change, sialyltransferase 1 (beta-galactoside alpha-2,6-sialyltransferase) (mouse Probe ID 94431_at) (chip A, 2nd): 1.3
Fold Change, small inducible cytokine B subfamily (Cys-X-Cys), member 10 (mouse Probe ID 93858_at) (chip A, 2nd): 1.7
Fold Change, thioredoxin reductase 1 (mouse Probe ID 161043_r_at) (chip A, 2nd): 1.8
Fold Change, thioredoxin reductase 1 (mouse Probe ID 161284_r_at) (chip A, 2nd): 1.3
Fold Change, thrombospondin 1 (mouse Probe ID 160469_at) (chip A, 2nd): 1.7
Fold Change, transforming growth factor, beta 2 (mouse Probe ID 93300_at) (chip A, 2nd): 0.833
Fold Change, transglutaminase 2, C polypeptide (mouse Probe ID 93352_at) (chip A, 2nd): 1.3
Fold Change, 2′-5′ oligoadenylate synthetase 1A (mouse Probe ID 102717_at) (chip A, 3rd): 2.2
Fold Change, DnaJ (Hsp40) homolog, subfamily A, member 1 (mouse Probe ID 97261_at) (chip A, 3rd): 0.833
Fold Change, cyclin D3 (mouse Probe ID 160545_at) (chip A, 3rd): 0.833
Fold Change, fructose bisphosphatase 1 (mouse Probe ID 96918_at) (chip A, 3rd): 1.7
Fold Change, growth arrest and DNA-damage-inducible 45 gamma (mouse Probe ID 101979_at) (chip A, 3rd): 1.9
Fold Change, heparan sulfate (glucosamine) 3-)-sulfotransferase 1 (mouse Probe ID 102410_at) (chip A, 3rd): 1
Fold Change, intercellular adhesion molecule (mouse Probe ID 1011414_at) (chip A, 3rd): 1
Fold Change, interferon-induced protein with tetratricopeptide repeats 1 (mouse Probe ID 100981_at) (chip A, 3rd): 1.6
Fold Change, interferon-stimulated protein (15 kDa) (mouse Probe ID 98822_at) (chip A, 3rd): 2.2
Fold Change, interleukin 13 receptor, alpha 2 (mouse Probe ID 95344_at) (chip A, 3rd): 1.2
Fold Change, osteoblast specific factor 2 (fasciclin I-like) (mouse Probe ID 92593_at) (chip A, 3rd): 1
Fold Change, proteosome (prosome, macropain) subunit, beta type 9 (mouse Probe ID 93085_at) (chip A, 3rd): 1.1
Fold Change, sialyltransferase 1 (beta-galactoside alpha-2,6-sialyltransferase) (mouse Probe ID 94431_at) (chip A, 3rd): 1.6
Fold Change, small inducible cytokine B subfamily (Cys-X-Cys), member 10 (mouse Probe ID 93858_at) (chip A, 3rd): 2
Fold Change, thioredoxin reductase 1 (mouse Probe ID 99985_at) (chip A, 3rd): 1
Fold Change, thioredoxin reductase 1 (mouse Probe ID 161043_r_at) (chip A, 3rd): 0.588
Fold Change, thrombospondin 1 (mouse Probe ID 160469_at) (chip A, 3rd): 1.5
Fold Change, transforming growth factor, beta 2 (mouse Probe ID 93300_at) (chip A, 3rd): 0.5
Fold Change, transglutaminase 2, C polypeptide (mouse Probe ID 93352_at) (chip A, 3rd): 0.833
Fold Change, RIKEN cDNA 2610017M01 gene (mouse Probe ID 105606_at) (chip B, 1st): 1.5
Fold Change, RIKEN cDNA 2610017M01 gene (mouse Probe ID 163053_at) (chip B, 1st): 1
